Laboratory results from publication PMC3605724 (Molecular pharmaceutics, 2013).
Values joined by “and” are separate entries in the source; they are usually repeats but may differ in a detail not shown here. Equal entries are not always repeated. Structures can show the parent of a compound that is named as a salt. Where two headings read alike, the source gives them in different places.

Columns and labels:
[1] = test system: rat intestine (proximal jejunum and distal ileum); assay: In situ single-pass intestinal perfusion; type: in vivo; conditions: physiological vs alternate pH, HDS, n = 6
pKa = type: physicochemical
Caco-2 cell monolayers [2] = conditions: human, Caco-2, pH 7.5
[3] = cited from earlier work
rat small intestine = conditions: cited from earlier work
[4] = Transport studies across Caco-2 cell monolayers; conditions: human
P-gp = conditions: cited from earlier work
Caco-2 cell monolayers [5] = assay: Transport studies across Caco-2 cell monolayers
Caco-2 cells = conditions: Caco-2, initial concentration based on HDS in 250 ml water; cited from earlier work

**Q.** Which “Effect of change of pH (6.5 vs 7.5) on permeability in jejunum and ileum” value [1] does the source give for `CC(CCc1ccccc1)NCC(O)c1ccc(O)c(C(N)=O)c1` (stereo not drawn) [Labetalol] here?
**A.** did not significantly affect

**Q.** What about the “Isoelectric point (maximum unionized fraction)” value (pKa) of the same molecule?
**A.** 8.4 pH

**Q.** What about the “Increase in AP-BL direction transport caused by verapamil” value (Caco-2 cell monolayers [2]) of the same molecule?
**A.** 1.5 times

**Q.** What about the “Time to reach maximum plasma concentration (tmax)” value ([3]; 100 mg oral dose, healthy volunteers) of the same molecule?
**A.** 48 min

**Q.** What about the “Systemic BA (mean)” value ([3]; hypertensive subjects) of the same molecule?
**A.** 33%

**Q.** And the “Dose excreted in the urine as unchanged drug” value ([3]; man)?
**A.** up to 5%

**Q.** And the “Orally administered dose of radioactivity excreted by urine” value ([3]; within 24 h, two subjects, 200 mg oral dose)?
**A.** 55% and 60%

**Q.** And the “Increase in apparent absorption rate constant of labetalol produced by verapamil” value (rat small intestine; highest labetalol concentration (100))?
**A.** about 53%

**Q.** And the “Increase in apparent absorption rate constant of labetalol produced by verapamil” value (rat small intestine; lowest labetalol concentration (10))?
**A.** about 84%

**Q.** And the Papp at 120 min ([4]; Caco-2, pH 6.5)?
**A.** 5.96 ± 1.96 ×10⁻⁶ cm/s

**Q.** And the Papp A→B at 120 min, 120 μg/ml ([4]; Caco-2, pH 7.5)?
**A.** 14.2 ± 1.5 ×10⁻⁶ cm/s

**Q.** And the Papp B→A at 120 min, 120 μg/ml ([4]; Caco-2, pH 7.5)?
**A.** 46.7 ± 6.5 ×10⁻⁶ cm/s

**Q.** What about the Papp at 120 min ([4]; Caco-2, pH 7.5) of the same molecule?
**A.** 15.9 ± 2.2 ×10⁻⁶ cm/s

**Q.** With `COCCc1ccc(OCC(O)CNC(C)C)cc1` (stereo not drawn) [Metoprolol] as the molecule, how does the “Effect of change of pH (6.5 vs 7.5) on permeability in jejunum and ileum” value [1] read?
**A.** did not significantly affect

**Q.** What about the “Interaction with P-gp” value (P-gp) of the same molecule?
**A.** does not interact with P-gp

**Q.** And the Papp at 120 min ([4]; Caco-2, pH 6.5)?
**A.** 9.44 ± 3.44 ×10⁻⁶ cm/s

**Q.** What about the Papp at 120 min ([4]; Caco-2, pH 7.5) of the same molecule?
**A.** 23.2 ± 7.1 ×10⁻⁶ cm/s

**Q.** What about the “Effect of verapamil on permeability in AP-BL and BL-AP directions” value (Caco-2 cell monolayers [5]; 0.1 mM verapamil, 0.1 times HDS (40 μg/ml), AP pH 7.5) of the same molecule?
**A.** no effect

**Q.** What about the “Increase of ER under AP pH 6.5” value (Caco-2 cell monolayers [5]; AP pH 6.5 compared with AP pH 7.5) of the same molecule?
**A.** 3.6 times

**Q.** Which “Absorption from the GI tract” value ([3]; FDA product information of Trandate) does the source give for `CC(CCc1ccccc1)NCC(O)c1ccc(O)c(C(N)=O)c1` (stereo not drawn) [labetalol hydrochloride] here?
**A.** completely absorbed

**Q.** Which “Permeability classification based on comparison to labetalol” value (Caco-2 cells) does the source give for `CCn1cc(C(=O)O)c(=O)c2cc(F)c(N3CCNC(C)C3)c(F)c21` (stereo not drawn) [lemofloxacin, lomefloxacin] here?
**A.** high permeability
